Results on 6 molecules are retold here after patent US7772241B2, “Variolin derivatives and their use as antitumor agents” (Pharma Mar S.A., priority 2001, dated 2010).

The subject of one data set is A-549. As to the kind of experiment: Inhibition of cells growth by colorimetric (SRB) assay, A-549. The settings on record: for GI50 / CC50: Homo sapiens, A549, 48 h; for TGI A-549 / A-549 TGI: SRB assay, 48 hours exposure. The procedure, abridged:
(§1)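 Human tumour cells seeded at 5×10^3/well in RPMI 1640 10% FBS, attached 18 h, then exposed 48 h to samples at 10 to 10^−8 μg/ml in DMSO/EtOH/PBS (0.5:0.5:99). Growth read by SRB staining after TCA fixation, OD 490 nm, triplicate wells; GI, TGI and LC derived.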

In another data set the test system is HT-29. As to the kind of experiment: Inhibition of cells growth by colorimetric (SRB) assay, HT-29. The settings on record: for GI50 / CC50: Homo sapiens, HT-29, 48 h; for TGI HT-29 / HT-29 TGI: SRB assay, 48 hours exposure. Summed up:
as §1
(In general: Sulforhodamine B stains cellular protein and so reports cell mass.)

Another data set concerns HMEC1. Nature of the data set: Inhibition of cells growth by colorimetric (SRB) assay, HMEC1. The settings on record: for GI50: Homo sapiens, HMEC-1, 48 h; for TGI H-MEC-1 / H-MEC-1 TGI: SRB assay, 48 hours exposure, in M (unit assumed).
Assay in data set [1]: as above
The note with it: human, HMEC1 cells, 48 hours exposure.

[2] abbreviates: read-out: GI50 A-549, SRB assay, 48 hours exposure.
The mark [3] stands for this setting: read-out: LC50 A-549, SRB assay, 48 hours exposure.
[4] abbreviates: read-out: GI50 HT-29, SRB assay, 48 hours exposure.
Setting [5] is: read-out: LC50 HT-29, SRB assay, 48 hours exposure.
The mark [6] stands for this setting: read-out: GI50 H-MEC-1, SRB assay, 48 hours exposure.
The mark [7] stands for this setting: read-out: A-549 LC50, SRB assay, 48 hours exposure.
[8] abbreviates: read-out: HT-29 GI50, SRB assay, 48 hours exposure.
The mark [9] stands for this setting: read-out: HT-29 LC50, SRB assay, 48 hours exposure.
Where [10] appears, read: read-out: A-549 GI50, SRB assay, 48 hours exposure.
The mark [11] stands for this setting: read-out: H-MEC-1 GI50, SRB assay, 48 hours exposure.

Where two headings read alike, the source gives them in different places.

The term GI50 denotes the concentration at which growth is held to half of that of the control. With `CSc1nccc(-c2c3cc(Cl)cnc3n3c(SC)nccc23)n1` [Compound 47], the results for the GI50 with A-549 (setting [2]), in the data set on HT-29 (setting [4]) and in the data set with HMEC1 (setting [6]) were 17.2 µM, 20.4 µM and 26.7 µM, respectively. Besides, the CC50 in the data set with A-549 (setting [3]) and in the data set on HT-29 (setting [5]) was 26.7 µM each time. Also, in the data set with A-549, the “TGI A-549” value is 2.67E−05. The “TGI HT-29” value in the data set with HT-29 worked out at 2.67E−05. In addition, the “TGI H-MEC-1” value with HMEC1 stood at 2.67E−05. In data set [1] (LC50 H-MEC-1, SRB assay), this molecule came in with a CC50 at 48 h of 26.7 µM.

For `CSc1nccc(-c2c3cc(F)c(Cl)nc3n3c(SC)nccc23)n1` [Compound 48], the GI50 with A-549 (setting [2]), in the data set with HT-29 (setting [4]) and in the data set on HMEC1 (setting [6]) was 25.5 µM throughout. Further, the CC50 with A-549 (setting [3]) and in the data set with HT-29 (setting [5]) was 25.5 µM in each case. Also, the “TGI A-549” value in the data set on A-549 came out at 2.55E−05. Also, the “TGI HT-29” value in the data set on HT-29 is 2.55E−05. In addition, the “TGI H-MEC-1” value with HMEC1 was 2.55E−05. In addition, the CC50 at 48 h in data set [1] (LC50 H-MEC-1, SRB assay) came out at 25.5 µM.

Consider `COc1cccc(-c2c3cccnc3n3c(SC)nccc23)c1` [Compound 57], for which the CC50 with A-549 (setting [7]) and in the data set on HT-29 (setting [9]) was 31.1 µM each time. The GI50 in the data set with A-549 (setting [2]) was found to be 22.5 µM; in the data set with HT-29 (setting [8]), 31.1 µM; with HMEC1 (setting [6]), 31.1 µM. In addition, the “A-549 TGI” value in the data set with A-549 is 3.11E−05. Also, the “HT-29 TGI” value in the data set on HT-29 came out at 3.11E−05. In addition, in the data set with HMEC1, the “TGI H-MEC-1” value was determined as 3.11E−05. In data set [1] (LC50 H-MEC-1, SRB assay), this molecule came in with a CC50 at 48 h of 31.1 µM.

`CSc1nccc2c(-c3ccccc3)c3cccnc3n12` [Compound 58]: the CC50 in the data set with A-549 (setting [7]) and in the data set on HT-29 (setting [9]) was ≥ 34.3 µM each time. In addition, the GI50 in the data set with A-549 (setting [2]), with HT-29 (setting [8]) and in the data set on HMEC1 (setting [6]) was ≥ 34.3 µM in each case. The “A-549 TGI” value with A-549 was 3.43E−05. Moreover, in the data set with HT-29, the “HT-29 TGI” value was 3.43E−05. Moreover, the “TGI H-MEC-1” value with HMEC1 stood at 3.43E−05. In addition, the CC50 at 48 h in data set [1] (LC50 H-MEC-1, SRB assay) was ≥ 34.3 µM.

Regarding `CSc1nccc2c(-c3cccc([N+](=O)[O-])c3)c3cccnc3n12` [Compound 59], the concentration for 50% growth inhibition (GI50) in the data set on A-549 (setting [10]), in the data set on HT-29 (setting [8]) and in the data set on HMEC1 (setting [11]) was 29.7 µM in each case. Besides, the CC50 in the data set with A-549 (setting [7]) and with HT-29 (setting [9]) was 29.7 µM each time. In the data set with A-549, the “A-549 TGI” value is 2.97E−05. In addition, the “HT-29 TGI” value in the data set on HT-29 was 2.97E−05. Besides, in the data set with HMEC1, the “H-MEC-1 TGI” value is on record as 2.97E−05. Also, the CC50 at 48 h in data set [1] (H-MEC-1 LC50, SRB assay) was 29.7 µM.

As to `Nc1nccc2c(-c3ccccc3)c3cccnc3n12` [Compound 63], the 50% growth inhibitory concentration (GI50) in the data set on A-549 (setting [10]), with HT-29 (setting [8]) and in the data set on HMEC1 (setting [11]) was ≥ 38.4 µM throughout. Moreover, the CC50 in the data set on A-549 (setting [7]) and in the data set on HT-29 (setting [9]) was ≥ 38.4 µM in each case. For the same molecule, the “A-549 TGI” value in the data set on A-549 is on record as 3.84E−05. Besides, the “HT-29 TGI” value in the data set on HT-29 is listed as 3.84E−05. In addition, in the data set on HMEC1, the “H-MEC-1 TGI” value was 3.84E−05. Moreover, in data set [1] (H-MEC-1 LC50, SRB assay), the CC50 at 48 h was ≥ 38.4 µM.
